The source of these data is patent US8716293B2, “Macrocyclic integrase inhibitors” (Janssen R&D Ireland, priority 2010, dated 2014).

Series [1] deals with HIV-1 (IIIB). As to the kind of experiment: cell-based HIV-1 replication assay in MT4-LTR-EGFP cells, wild type. The following applies: Human immunodeficiency virus 1, 72 h, 3 days, EGFP fluorescence. From the text:
MT4-LTR-enhanced green fluorescent protein (EGFP) cells were obtained by transfecting MT4 cells with a selectable construct encompassing the coding sequences for the HIV LTR as a promoter for the expression of EGFP and subsequent selection of permanently transfected cells. MT4-cytomegalovirus (CMV)-EGFP cells were obtained by selection for permanently transformed MT4 cells with a CMV-EGFP reporter gene. Cell lines were maintained in RPMI 1640 medium supplemented with 10% heat-inactivated fetal calf serum, 2 mM L-glutamine, 0.1% NaHCO3, and antibiotics (0.02% gentamicin and 0.8% G418) and incubated in a humidified incubator with a 5% CO2 atmosphere at 37° C.
The inhibitory antiviral activity of different compounds was determined in a cell-based HIV-1 replication assay. MT4-LTR-EGFP cells (150,000 cells/ml) were infected with HIV-1 (IIIB or SDM strains Q148R, N155H, or G140S-Q148H; multiplicity of infection [MOI] of 0.0025) in the presence or absence of inhibitor. After 3 days of incubation, the inhibition of HIV replication was quantified by measuring EGFP fluorescence, and expressed as the compound concentration required for 50% inhibition of HIV-1 replication in cell culture (EC50). The antiviral activities of the different compounds are reported in Table 4 and expressed as EC50 for the inhibition of wild type HIV (IIIB EC50) and as fold change in activity against the mutant strains (FC-Q148R, FC-N155H, FC-G140S-Q148H) compared to the activity against wild type HIV.

Series [2] has as its system cryopreserved hepatocytes of human subjects. As to the kind of experiment: metabolic stability in human hepatocytes. The following applies: 1 μM, percentage turnover; for Human (% TO) 15 min: 15 min incubation; for Human (% TO) 60 min: 60 min incubation. Format: in vitro ADME. As to the method:
(§1) For determining in vitro metabolic stability, cryopreserved hepatocytes from Sprague Dawley rats and of human subjects (pool of male and female) were obtained from an external supplier (Cellz Direct Inc., Paisly, UK). Tested compounds were dissolved in DMSO and this stock solution was used to spike rat and human hepatocyte cell cultures (10^6 cells/ml) at a final concentration of 1 μM (final percentage of DMSO was 0.02% (v/v)). Incubations were performed for up to 60 min at approximately 37° C. and terminated by the addition of two volumes of DMSO. Samples were then centrifuged and aliquots of the supernatant analyzed using liquid chromatography (LC) with electrospray mass spectrometric detection (MS/MS) to monitor the disappearance of parent compound by single reaction monitoring (SRM) and reverse-phase chromotatography with a gradient of acetonitrile and water containing 0.1% (v/v) formic acid. Based on peak area, the percentage of parent compound remaining after 15 and 60 min incubation was calculated and the results, expressed as percentage turnover (TO) relative to time zero controls.

The subject of series [3] is cryopreserved hepatocytes from Sprague Dawley rats. As to the kind of experiment: metabolic stability in rat hepatocytes. In kind it is in vitro ADME. The conditions noted are these: 1 μM, percentage turnover; for Rat (% TO) 15 min: 15 min incubation; for Rat (% TO) 60 min: 60 min incubation. How it is done:
as §1

Series [4] has as its system HIV-1 LAI (IIIB). In words: antiviral assay in the presence of 50% human serum. The conditions noted are these: Human immunodeficiency virus 1, IIIB, 96 h, MT-4-LTR-EGFP cells, 4 days, resazurin cell viability. Format: cell-based. An outline of the steps: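 MT-4-LTR-EGFP cells were infected at MOI 0.001–0.01 CCID50/cell for 1 h, washed, then cultured 4 days with serially diluted compound in 50% human serum (10% FCS used in parallel). EC50/HS was derived from resazurin cell-viability readout.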

The subject of series [5] is HIV-1 SDM strain N155H. As to the kind of experiment: cell-based HIV-1 replication assay in MT4-LTR-EGFP cells, N155H mutant. The conditions noted are these: fold change in activity against N155H mutant compared to wild type HIV.
The test system of series [6] is HIV-1 SDM strain Q148R. As to the kind of experiment: cell-based HIV-1 replication assay in MT4-LTR-EGFP cells, Q148R mutant. The conditions noted are these: fold change in activity against Q148R mutant compared to wild type HIV.
Series [7] can be described thus: pharmacokinetic evaluation in the rat. Format: in vivo, male Sprague-Dawley rats. The conditions noted are these: 2 mg/kg, intravenous bolus 2 mg/kg; for clearance / half-life / Vd: male, Sprague-Dawley, plasma, iv; for clearance: read-out: CLp; for Vd: volume of distribution at steady-state, read-out: Vss. How it is done: For determining the pharmacokinetic properties in rat, each HIV integrase inhibitor was dissolved in PEG400/normal saline (70:30 (v/v)) at a nominal concentration of 1 mg/ml and administered (2 ml/kg) to male Sprague-Dawley rats (n=3 per test compound) as an intravenous bolus via a saphenous vein at a dose level of 2 mg/kg. […] Plasma was obtained by centrifugation and stored at −20° C. prior to analysis. Analysis was performed using liquid chromatography (LC) with tandem mass spectrometric detection (MS/MS) in positive ion mode. Each HIV integrase inhibitor was eluted from a reversed-phase column with a gradient of acetonitrile and water containing 0.1% (v/v) formic acid. At the time of analysis plasma samples (50 p. 1) were thawed and […] with 200 μl of acetonitrile containing 0.1% (v/v) formic acid and centrifuged. Aliquots of the supernatant (100 μl) were diluted with 200 μl of water containing 25% (v/v) methanol and 0.1% (v/v) formic acid and injected via an electrospray interface directly into the Mass Spectrometer. Calibration standards and quality controls were prepared in rat plasma at the same time as the samples and analyzed before and after the samples containing HIV integrase inhibitor. Non-compartmental pharmacokinetic analysis of the plasma concentration-time curves was performed using WinNonLin software to provide estimates of the plasma clearance (CLp), volume of distribution at steady-state (Vss) and terminal phase elimination half-life (t1/2).

The subject of series [8] is HIV-1 SDM strain G140S-Q148H. In words: cell-based HIV-1 replication assay in MT4-LTR-EGFP cells, G140S-Q148H mutant. The conditions noted are these: fold change in activity against G140S-Q148H mutant compared to wild type HIV.
Setting [9] is: terminal phase elimination half-life.

Broadly, the EC50 is the concentration that produces a half-maximal response. What is called half-life is the time in which the quantity being followed falls by half. Usually melting point stands for the temperature, or range, at which the solid turns liquid. As to `CCN1C[C@H](C)n2c(c(O)c3c(=O)n4nc(c32)N(C)S(=O)(=O)CCCCOc2cc(F)ccc2C4)C1=O` [Compound 1], the melting point fell in the range of 298.6 to 300.6 °C. The compound also came in with an EC50 in series [1] of 0.92 nM. Besides, in series [2], the “Human (% TO) 15 min” value is 16 % TO and the “Human (% TO) 60 min” value stood at 31 % TO. In series [3], the “Rat (% TO) 15 min” value is reported as 30 % TO and the “Rat (% TO) 60 min” value came to 42 % TO. The EC50 in series [4] turned out to be 3 nM. The FC-N155H in series [5] is 3.2. Moreover, in series [6], the FC-Q148R was found to be 0.7. In addition, in [7] (plasma clearance), the clearance worked out at 8 mL/min/kg. Moreover, the half-life in [7] (setting [9]) is 4.8 h. Moreover, the Vd in series [7] is 0.8 L/kg. The FC-G140S-Q148H in [8] was determined as 2.6.

For the compound `CCN1C[C@H](C)n2c(c(O)c3c(=O)n4nc(c32)C(=O)NCCCCCOc2cc(F)ccc2C4)C1=O` [Compound 3], the melting point stood at 128.21 °C. Moreover, a half-maximal response in series [1] (EC50) required 2.35 nM. Further, the EC50 in series [4] was 13 nM. For the same compound, in series [5], the FC-N155H was 3.9. Moreover, the FC-Q148R in series [6] was 0.9. In addition, in series [7] (plasma clearance), the CLp is 8 mL/min/kg and the clearance turned out to be 6 mL/min/kg. For the same compound, in series [7] (setting [9]), the t1/2 is given as 7.8 h and the half-life is 4.4 h. This compound yielded an FC-G140S-Q148H in series [8] of 8.1.

For `CCN1C[C@H](C)n2c(c(O)c3c(=O)n4nc(c32)C(=O)NCCCCCOc2cc(F)c(F)cc2C4)C1=O` [Compound 4], the melting point was in the range of 127.49 to 128.63 °C. In series [1], this compound displayed a concentration for a half-maximal effect (EC50) of 2.61 nM. Also, in series [4], the EC50 was 10 nM. For the same compound, the FC-N155H in [5] is given as 6.1. Besides, the FC-Q148R in [6] came to 1.2. In series [8], this compound yielded an FC-G140S-Q148H of 10.9.

For `CCN1C[C@@H](C)n2c(c(O)c3c(=O)n(Cc4ccc(F)c(Cl)c4)nc(N4CCN(C)S4(=O)=O)c32)C1=O` [Compound 54r, reference compound], it took 2.04 nM to reach a half-maximal effect in series [1] (EC50). Besides, in series [2], the “Human (% TO) 15 min” value turned out to be 16 % TO and the “Human (% TO) 60 min” value came to 23 % TO. Besides, in series [3], the “Rat (% TO) 15 min” value came to 32 % TO and the “Rat (% TO) 60 min” value amounted to 46 % TO. Besides, the concentration for a half-maximal effect (EC50) in series [4] amounted to 7 nM. The same compound displayed an FC-N155H in series [5] of 4.4. In addition, the FC-Q148R in series [6] is 0.4. The clearance in [7] (plasma clearance) was found to be 40 mL/min/kg. Besides, the half-life in series [7] (setting [9]) is 1.5 h. In addition, in series [7], the Vd is 2.2 L/kg. In addition, the FC-G140S-Q148H in series [8] is on record as 3.1.
